Results published in patent publication US20040038199A1, “Phenotyping assay and reagents therefor” (priority 2000, published 2004).
Like-named read-outs stand apart in the source and are kept apart here.

Assays:
Format in all cases: cell-based, HIV-1
HXB2 = experiment: MTT-reduction cell viability drug susceptibility assay, wild type HXB2 (Table 3A); conditions: for EC50: HXB2 wild type; for fold resistance: HXB2 wild type (reference)
Experimental: (§1) As previously discussed, recombinant virus produced by the method of the present invention may be used in drug sensitivity assays. A suitable drug sensitivity assay is described in Pauwels et al. (1988) and is an MTT-reduction colorimetric cell viability assay. Cells infected with the virus are plated into the wells of tissue culture plates and incubated with the anti-viral drug to be tested. After incubation, MTT (3-(4,5-dimethylthiazol-2-yl)-2,5diphenyltetrazolium bromide) is added to the cell culture. Only live cells produce the blue formazan product after incubation with MTT. This product is detectable by reading the optical absorbance at 540-590 nm, so the absorbance reading gives a measure of the cells which have been protected from the virus by the anti-viral drug. Viral drug resistance results in a decrease in surviving cells and a decrease in absorbance at 540-590 nm.
(§2) In order to determine whether the extra sequences in the FPH recombinants contain determinants of susceptibility, the recombinant viruses were tested against several drugs. Drug susceptibility was determined by the 3-(4,5dimethylthiazol-2-yl)-2,5-diphenyltetrazolium bromide (MTT)-reduction calorimetric cell viability assay described previously (Pauwels et al. 1988; Robinson et al., 2000). Changes in susceptibility were defined as fold increase in IC50 relative to WT (HXB2). Nucleotide sequences were determined using ABI 3700 capillary sequencers and Big Dye terminators. […] Virus 1 also gave a 2.2-fold (Table 3A) or 4-fold (Table 3B) higher susceptibility to IDV and 2.9-fold (Table 3A) or 3.2-fold higher susceptibility to APV when generated by RVA.

[1] = tested on: Virus 2 (recombinant generated from plasma of Subject 2 by RVA); experiment: MTT-reduction cell viability drug susceptibility assay, recombinant Virus 2 (RVA); conditions: for EC50 / fold resistance: Table 3A, Virus 2, method RVA; for fold resistance: relative to WT (HXB2)
Experimental: as §1
(§3) In this experiment, plasma from three HIV-1 infected subjects experiencing virological failure on PI-containing therapy regimens was used as the basis for the FPH to generate recombinant virus. […] Virus from Subject 2 had L10I, M46I, I50V and a Lp1′F mutation at the p1/p6 protease cleavage site, all of which are mutations typical of high level APV resistance.
(§4) The LTR was added to the nested products by PMR prior to transfection. The PMR reactions successfully added the LTR sequences to the nested products (FIG. 9). The first round RT-PCR reactions were also used as templates to generate products for RVA by cotransfection with pHXBΔCSPRTC. Triplicate PCR products were cotransfected into MT4 cells with the linearised plasmid pHXBTOPO1, in the case of the PMR products, and with linearised pHXBΔCSPRTC in for the RVA products. Viral cytopathic effect was observed and titratable virus was harvested in the supernatants. No virus was isolated from virus 2 using FPH and only one of the triplicate cultures from virus 3 yielded infectious virus. All of the RVA cultures produced virus.
as §2

[2] = tested on: Virus 1 (recombinant generated from plasma of Subject 1 by FPH or RVA); experiment: MTT-reduction cell viability drug susceptibility assay, recombinant Virus 1 (FPH or RVA); conditions: for EC50 / fold resistance: Table 3A; for EC50: read-out: Drug EC50; for fold resistance: relative to WT (HXB2)
Experimental: as §1, §3, §4, §2

[3] = tested on: Virus 3 (recombinant generated from plasma of Subject 3 by FPH or RVA); experiment: MTT-reduction cell viability drug susceptibility assay, recombinant Virus 3 (FPH or RVA); conditions: for EC50 / fold resistance: Table 3A; for fold resistance: relative to WT (HXB2)
Experimental: as §1, §3, §4, §2

[4] = tested on: Virus 4.1, 4.2, 4.3 (recombinants by RVA); experiment: MTT-reduction cell viability drug susceptibility assay, viruses 4.1-4.3 (Table 3B); conditions: for EC50: Human immunodeficiency virus 1, Table 3B; for fold resistance: Table 3B, relative to WT
Experimental: as §1, §4, §2

[5] = tested on: WT (HXB2) generated by FPH or RVA; experiment: MTT-reduction cell viability drug susceptibility assay, WT (Table 3B); conditions: for EC50: Human immunodeficiency virus 1, HXB2, Table 3B; for fold resistance: Table 3B
Experimental: as §1, §2

[6] = tested on: Virus 5.1 (FPH), 5.2 (RVA); experiment: MTT-reduction cell viability drug susceptibility assay, viruses 5.1 and 5.2 (Table 3B); conditions: for EC50: Human immunodeficiency virus 1, Table 3B; for fold resistance: Table 3B, relative to WT
Experimental: as §1, §4, §2

[7] = tested on: Virus 3.1, 3.2, 3.3 (recombinants by FPH or RVA); experiment: MTT-reduction cell viability drug susceptibility assay, viruses 3.1-3.3 (Table 3B); conditions: for fold resistance: Table 3B, relative to WT
Experimental: as §1, §4, §2

[8] = tested on: recombinant viruses generated by FPH or RVA; experiment: Comparison of drug susceptibility of FPH generated and RVA generated viruses; conditions: two separate experiments (tables 3A and B)
Experimental: as §1
In order to determine whether the extra sequences in the FPH recombinants contain determinants of susceptibility, the recombinant viruses were tested against several drugs. Drug susceptibility was determined by the 3-(4,5dimethylthiazol-2-yl)-2,5-diphenyltetrazolium bromide (MTT)-reduction calorimetric cell viability assay described previously (Pauwels et al. 1988; Robinson et al., 2000). […] Nucleotide sequences were determined using ABI 3700 capillary sequencers and Big Dye terminators. […]

CC(C)c1nc(CN(C)C(=O)N[C@H](C(=O)N[C@@H](Cc2ccccc2)C[C@H](O)[C@H](Cc2ccccc2)NC(=O)OCc2cncs2)C(C)C)cs1 [RTV]
EC50 (HXB2): 65.1 nM
fold resistance (HXB2): (1.0) fold
EC50 [1]: 454 nM
fold resistance [1]: (7.0) fold
EC50 ([2]; Virus 1, method FPH): 205 nM
fold resistance ([2]; Virus 1, method FPH): (3.1) fold
EC50 ([2]; Virus 1, method RVA): 90.4 nM
fold resistance ([2]; Virus 1, method RVA): (1.4) fold
EC50 ([3]; Virus 3, method FPH): 1790 nM
fold resistance ([3]; Virus 3, method FPH): (27) fold
EC50 ([3]; Virus 3, method RVA): 1400 nM
fold resistance ([3]; Virus 3, method RVA): (22) fold

CC(C)(C)NC(=O)[C@@H]1C[C@@H]2CCCC[C@@H]2CN1C[C@@H](O)[C@H](Cc1ccccc1)NC(=O)[C@H](CC(N)=O)NC(=O)c1ccc2ccccc2n1 [SQV]
EC50 (HXB2): 13.1 nM
fold resistance (HXB2): (1.0) fold
EC50 [1]: 9.06 nM
fold resistance [1]: (0.69) fold
EC50 ([2]; Virus 1, method FPH): 13.1 nM
fold resistance ([2]; Virus 1, method FPH): (1.0) fold
EC50 ([2]; Virus 1, method RVA): 6.56 nM
fold resistance ([2]; Virus 1, method RVA): (0.5) fold
EC50 ([3]; Virus 3, method FPH): 16.4 nM
fold resistance ([3]; Virus 3, method FPH): (1.3) fold
EC50 ([3]; Virus 3, method RVA): 13.7 nM
fold resistance ([3]; Virus 3, method RVA): (1.0) fold

Cc1cn([C@H]2C[C@H](N=[N+]=[N-])[C@@H](CO)O2)c(=O)[nH]c1=O [ZDV, zidovudine]
EC50 ([4]; Virus 4.1, method RVA): > 5 µM
EC50 ([4]; Virus 4.2, method RVA): > 5 µM
EC50 ([4]; Virus 4.3, method RVA): > 5 µM
fold resistance ([4]; Virus 4.1, method RVA): (>163) fold
fold resistance ([4]; Virus 4.2, method RVA): (>163) fold
fold resistance ([4]; Virus 4.3, method RVA): (>163) fold
resistance, fold higher than wild-type ([1]; Virus 2 obtained via the RVA, Table 3B experiment): > 84 fold
fold higher susceptibility when generated by RVA than when generated by FPH ([2]; virus 1, Table 3B experiment): 4.8 fold
EC50 ([5]; method FPH): 28.3 nM
EC50 ([5]; method RVA): 30.7 nM
fold resistance ([5]; method FPH (reference)): (1.0) fold
fold resistance ([5]; method RVA (reference)): (1.0) fold
EC50 ([6]; Virus 5.1, method FPH): 48.2 nM
EC50 ([6]; Virus 5.2, method RVA): 16.5 nM
fold resistance ([6]; Virus 5.1, method FPH): (1.7) fold
fold resistance ([6]; Virus 5.2, method RVA): (−1.9) fold
EC50 ([7]; Human immunodeficiency virus 1, Table 3B, Virus 3.1, method FPH, read-out: Drug EC50): 76.1 nM
EC50 ([7]; Human immunodeficiency virus 1, Table 3B, Virus 3.2, method FPH, read-out: Drug EC50): 65.3 nM
EC50 ([7]; Human immunodeficiency virus 1, Table 3B, Virus 3.3, method FPH, read-out: Drug EC50): 35.1 nM
EC50 ([7]; Human immunodeficiency virus 1, read-out: Drug EC50, Table 3B, Virus 3.1, method RVA): 12.3 nM
fold resistance ([7]; Virus 3.1, method FPH): (2.7) fold
fold resistance ([7]; Virus 3.1, method RVA): (−2.5) fold
fold resistance ([7]; Virus 3.2, method FPH): (2.3) fold
fold resistance ([7]; Virus 3.3, method FPH): (1.2) fold
difference in susceptibility between the two techniques (RVA vs FPH) ([3]; virus 3, Table 3B experiment): 2.9 fold
Susceptibility in FPH generated versus RVA generated viruses [8]: lower in the FPH generated than the RVA generated viruses
